These results are taken from US11845724B2, “USP30 inhibitors and uses thereof” (Vincere Biosciences, Inc., priority 2019, dated 2023).

Where two headings read alike, the source gives them in different places.

Test [1] has as its target USP30 (Homo sapiens (Human), UniProt Q70CQ3). The test can be described thus: Dundee MALDI-TOF mass spectrometry assay (IC50). In kind it is biochemical. As to conditions: USP30 25 ng/μl, K48-linked diubiquitin 5.6 μM, avg, read-out: Dundee IC50 μM (avg in vitro MS assay). As for the experimental part: Compounds were tested in a MALDI-TOF assay based on the paper by Ritorto et al. (Ritorto et al. Screening of DUB activity and specificity by MALDI-TOF mass spectrometry. Nat. […] USP30 (25 ng/μl) tested against K48-linked diubiquitin (5.6 μM). USP30 was diluted in a buffer containing 40 mM Tris, 0.01% BSA, 1 mM DTT and K48 in 40 mM Tris, 0.01% BSA. The compounds were pre-incubated with the USP30 for 5 mins at room temp before the K48 dimer addition. The assay mixture was then incubated for 45 mins at room temp. The assay was stopped by the addition of TFA to a final concentration of 2% (v/v). […] Then 250 nl of these solutions were spotted onto an MTP AnchorChip 1,536 TF and this is analysed on the Bruker rapifleX MALDI-TOF.

For test [2], the target named is recombinant USP30 (amino acids 57-517 of the human sequence) (Homo sapiens (Human), UniProt Q70CQ3). The experiment in a line: In vitro USP30 biochemical assay (Ubiquitin-Rhodamine).
The mark [3] stands for this setting: USP30 IC50 μM (avg), Ubiquitin-Rhodamine substrate 25 nM, 1.5 nM recombinant USP30.
Where [4] appears, read: read-out: USP30 IC50 μM (avg), Ubiquitin-Rhodamine substrate 25 nM, 1.5 nM recombinant USP30.

USP30, sequence (Q70CQ3 whole entry): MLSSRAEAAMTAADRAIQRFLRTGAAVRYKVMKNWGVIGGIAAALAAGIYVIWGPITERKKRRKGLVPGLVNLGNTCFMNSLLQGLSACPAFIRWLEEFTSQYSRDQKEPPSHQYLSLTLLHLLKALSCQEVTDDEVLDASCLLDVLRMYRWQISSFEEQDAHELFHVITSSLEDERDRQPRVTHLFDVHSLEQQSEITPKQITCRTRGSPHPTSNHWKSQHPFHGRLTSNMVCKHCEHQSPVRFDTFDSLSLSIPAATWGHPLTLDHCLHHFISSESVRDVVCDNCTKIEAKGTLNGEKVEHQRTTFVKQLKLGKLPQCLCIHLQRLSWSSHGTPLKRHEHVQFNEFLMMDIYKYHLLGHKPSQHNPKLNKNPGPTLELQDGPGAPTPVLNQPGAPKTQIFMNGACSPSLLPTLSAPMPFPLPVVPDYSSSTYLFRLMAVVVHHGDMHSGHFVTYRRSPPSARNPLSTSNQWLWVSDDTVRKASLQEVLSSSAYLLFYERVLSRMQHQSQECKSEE
recombinant USP30 (amino acids 57-517 of the human sequence), sequence (Q70CQ3 57-517): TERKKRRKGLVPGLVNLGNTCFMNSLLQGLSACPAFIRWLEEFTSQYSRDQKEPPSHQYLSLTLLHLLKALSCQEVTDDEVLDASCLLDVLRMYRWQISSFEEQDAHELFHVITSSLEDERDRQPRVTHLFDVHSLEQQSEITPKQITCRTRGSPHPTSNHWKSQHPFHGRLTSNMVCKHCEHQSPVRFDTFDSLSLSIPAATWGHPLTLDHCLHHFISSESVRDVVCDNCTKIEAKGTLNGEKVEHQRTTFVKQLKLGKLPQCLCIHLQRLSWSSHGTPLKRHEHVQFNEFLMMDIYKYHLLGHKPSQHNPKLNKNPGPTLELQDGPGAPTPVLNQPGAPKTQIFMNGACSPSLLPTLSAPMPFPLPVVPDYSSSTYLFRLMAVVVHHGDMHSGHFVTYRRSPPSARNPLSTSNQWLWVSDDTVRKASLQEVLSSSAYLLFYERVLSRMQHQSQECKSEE

Take `CC(C)(C)NS(=O)(=O)c1ccc(NC(=O)[C@H](Cc2ccccc2)N2Cc3ccccc3C2=O)cc1` [Compound I-69, (S)-N-(4-(N-tert-butylsulfamoyl)phenyl)-2-(1-oxoisoindolin-2-yl)-3-phenylpropanamide]: the 50% inhibitory concentration (IC50) – broadly, the concentration that inhibits the measured activity by half – in test [1] lay within 1 to 10 µM.

With `CC(C)(C)CS(=N)(=O)c1ccc(NC(=O)[C@H](Cc2ccccc2)NC(=O)c2ccc(F)cc2)cc1` (stereo partly drawn) [Compound I-3, N-((2S)-1-(4-(2,2-dimethylpropylsulfonimidoyl)phenylamino)-1-oxo-3-phenylpropan-2-yl)-4-fluorobenzamide], in test [1], the IC50 was greater than 10 µM.

For the compound `O=C(N[C@@H](Cc1ccccc1)C(=O)Nc1ccc(S(=O)(=O)NCC2CC2)cc1)c1ccc(F)cc1` [Compound I-9, (S)-N-(1-(4-(N-(cyclopropylmethyl)sulfamoyl)phenylamino)-1-oxo-3-phenylpropan-2-yl)-4-fluorobenzamide], the IC50 in test [1] was less than 0.05 µM.

Take `CC[C@@H](C)NS(=O)(=O)c1ccc(NC(=O)[C@H](Cc2ccccc2)NC(=O)c2ccc(F)cc2)cc1` [Compound I-12, N-((S)-1-((4-(N-((R)-sec-butyl)sulfamoyl)phenyl)amino)-1-oxo-3-phenylpropan-2-yl)-4-fluorobenzamide]: in test [1], the half-maximal inhibitory concentration (IC50) is less than 0.05 µM.

As to `C[C@@H](NS(=O)(=O)c1ccc(NC(=O)[C@H](Cc2ccccc2)NC(=O)c2ccc(F)cc2)cc1)C1CC1` [Compound I-67, N-((S)-1-(4-(N-((R)-1-cyclopropylethyl)sulfamoyl)phenylamino)-1-oxo-3-phenylpropan-2-yl)-4-fluorobenzamide], the half-inhibitory concentration (IC50) in test [1] was less than 0.05 µM.

With `CC(C)(C)NS(=O)(=O)c1ccc(NC(=O)C2Cc3ncccc3N2C(=O)c2ccc(F)cc2)cc1` (centres unmarked) [Compound I-54, N-(4-(N-tert-butylsulfamoyl)phenyl)-1-(4-fluorobenzoyl)-2,3-dihydro-1H-pyrrolo[3,2-b]pyridine-2-carboxamide], the IC50 in test [1] was greater than 1 µM.

In the case of `CC(C)(C)NS(=O)(=O)c1ccc(NC(=O)[C@H](Cc2ccccc2)NC(=O)c2ccc(F)cc2)s1` [Compound I-63, (S)-N-(1-(5-(N-tert-butylsulfamoyl)thiophen-2-ylamino)-1-oxo-3-phenylpropan-2-yl)-4-fluorobenzamide], the IC50 in test [1] fell in the range of 0.05 to 1 µM.

For `CCC(C)(C)NS(=O)(=O)c1ccc(NC(=O)[C@H](Cc2ccccc2)NC(=O)c2ccc(F)cc2)cc1` [Compound I-24, (S)-4-fluoro-N-(1-oxo-1-(4-(N-tert-pentylsulfamoyl)phenylamino)-3-phenylpropan-2-yl)benzamide], in test [1], the IC50 is less than 0.05 µM.

With `O=C(N[C@@H](Cc1ccccc1)C(=O)Nc1ccc(S(=O)(=O)NC2CCCCC2)cc1)c1ccc(F)cc1` [Compound I-31, (S)-N-(1-(4-(N-cyclohexylsulfamoyl)phenylamino)-1-oxo-3-phenylpropan-2-yl)-4-fluorobenzamide], the IC50 in test [1] fell in the range of 0.05 to 1 µM.

For `O=C(N[C@@H](Cc1ccccc1)C(=O)Nc1ccc(S(=O)(=O)NC2CCC2)cc1)c1ccc(F)cc1` [Compound I-7, (S)-N-(1-(4-(N-cyclobutylsulfamoyl)phenylamino)-1-oxo-3-phenylpropan-2-yl)-4-fluorobenzamide], the IC50 in test [1] is less than 0.05 µM.

As to `CC(C)(C)NS(=O)(=O)c1ccc(NC(=O)[C@H](Cc2c[nH]c3ccccc23)NC(=O)c2ccc(F)cc2)cc1` [Compound I-1, (S)-N-(1-(4-(N-tert-butylsulfamoyl)phenylamino)-3-(1H-indol-3-yl)-1-oxopropan-2-yl)-4-fluorobenzamide], the IC50 in test [1] was in the range of 0.05 to 1 µM.

As to `O=C(N[C@@H](Cc1ccccc1)C(=O)Nc1ccc(S(=O)(=O)NC2CCCC2)cc1)c1ccc(F)cc1` [Compound I-8, (S)-N-(1-(4-(N-cyclopentylsulfamoyl)phenylamino)-1-oxo-3-phenylpropan-2-yl)-4-fluorobenzamide], the 50% inhibitory concentration (IC50) in test [1] is less than 0.05 µM.

With `O=C(N[C@@H](Cc1ccccc1)C(=O)Nc1ccc(S(=O)(=O)NC2COC2)c(Cl)c1)c1ccc(F)cc1` [Compound I-170, (S)-N-(1-(3-chloro-4-(N-oxetan-3-ylsulfamoyl)phenylamino)-1-oxo-3-phenylpropan-2-yl)-4-fluorobenzamide], the concentration for half-maximal inhibition (IC50) in test [2] (setting [3]) fell in the range of 0.05 to 1 µM.

Regarding `CCNS(=O)(=O)c1ccc(NC(=O)[C@H](Cc2ccccc2)NC(=O)c2ccc(F)cc2)c(OC)c1` [Compound I-143, (S)-N-(1-(4-(N-ethylsulfamoyl)-2-methoxyphenylamino)-1-oxo-3-phenylpropan-2-yl)-4-fluorobenzamide], in test [2] (setting [3]), the 50% inhibitory concentration (IC50) lay in the range of 1 to 10 µM.

On to `CC(C)(C#N)NS(=O)(=O)c1ccc(NC(=O)[C@H](Cc2ccccc2)NC(=O)c2ccc(F)cc2)cn1` [Compound I-176, (S)-N-(1-(6-(N-(2-cyanopropan-2-yl)sulfamoyl)pyridin-3-ylamino)-1-oxo-3-phenylpropan-2-yl)-4-fluorobenzamide], for which the 50% inhibitory concentration (IC50) in test [2] (setting [3]) is 0.05 to 1 µM.

Consider `COCC(C)(C)NS(=O)(=O)c1ccc(NC(=O)[C@H](Cc2ccccc2)N(C)C(=O)c2ccc(F)cc2)cc1` [Compound I-160, (S)-4-fluoro-N-(1-(4-(N-(1-methoxy-2-methylpropan-2-yl)sulfamoyl)phenylamino)-1-oxo-3-phenylpropan-2-yl)-N-methylbenzamide], for which the concentration for half-maximal inhibition (IC50) in test [2] (setting [3]) fell in the range of 1 to 10 µM.

With `O=C(N[C@@H](Cc1ccccc1)C(=O)Nc1ccc(S(=O)(=O)N[C@H]2CCOC2)nc1)c1ccc(F)cc1` [Compound I-178, 4-fluoro-N-((S)-1-oxo-3-phenyl-1-(6-(N-((S)-tetrahydrofuran-3-yl)sulfamoyl)pyridin-3-ylamino)propan-2-yl)benzamide], the half-maximal inhibitory concentration (IC50) in test [2] (setting [4]) was less than 0.05 µM.

`COc1cc(S(=O)(=O)NC23CC(C2)C3)ccc1NC(=O)[C@H](Cc1ccccc1)NC(=O)c1ccc(F)cc1` [Compound I-145, (S)-N-(1-(4-(N-bicyclo[1.1.1]pentan-1-ylsulfamoyl)-2-methoxyphenylamino)-1-oxo-3-phenylpropan-2-yl)-4-fluorobenzamide]: the half-maximal inhibitory concentration (IC50) in test [2] (setting [3]) was 1 to 10 µM.

Consider `CC(C)(C)NS(=O)(=O)c1ccc(NC(=O)C2Cc3ccncc3N2C(=O)c2ccc(F)cc2)cc1` (centres unmarked) [Compound I-56, N-(4-(N-tert-butylsulfamoyl)phenyl)-1-(4-fluorobenzoyl)-2,3-dihydro-1H-pyrrolo[2,3-c]pyridine-2-carboxamide], for which the IC50 in test [2] (setting [4]) is greater than 10 µM.

Consider `C#CC(C)(C)NS(=O)(=O)c1ccc(NC(=O)[C@H](Cc2ccccc2)NC(=O)c2ccc(F)cc2)cn1` [Compound I-177, (S)-4-fluoro-N-(1-(6-(N-(2-methylbut-3-yn-2-yl)sulfamoyl)pyridin-3-ylamino)-1-oxo-3-phenylpropan-2-yl)benzamide], for which the 50% inhibitory concentration (IC50) in test [2] (setting [3]) lay within 0.05 to 1 µM.

Regarding `CN(C)S(=O)(=O)c1cccc2c(NC(=O)[C@H](Cc3ccccc3)NC(=O)c3ccc(F)cc3)cccc12` [Compound I-128, (S)-N-(1-(5-(N,N-dimethylsulfamoyl)naphthalen-1-ylamino)-1-oxo-3-phenylpropan-2-yl)-4-fluorobenzamide], the 50% inhibitory concentration (IC50) in test [2] (setting [4]) is greater than 10 µM.

Consider `CC(C)(C)NS(=O)(=O)c1ccc(NC(=O)[C@H](Cc2ccccc2)NC(=O)C2COC2)cc1` [Compound I-86, (S)-N-(1-(4-(N-tert-butylsulfamoyl)phenylamino)-1-oxo-3-phenylpropan-2-yl)oxetane-3-carboxamide], for which, in test [2] (setting [4]), the concentration for half-maximal inhibition (IC50) is greater than 10 µM.

On to `COc1cc(NC(=O)[C@H](Cc2ccccc2)NC(=O)c2ccc(F)cc2)ccc1S(=O)(=O)NC(C)(C)C#N` [Compound I-180, (S)-N-(1-(4-(N-(2-cyanopropan-2-yl)sulfamoyl)-3-methoxyphenylamino)-1-oxo-3-phenylpropan-2-yl)-4-fluorobenzamide], for which, in test [2] (setting [3]), the IC50 was 0.05 to 1 µM.
